Assay results taken from ChEMBL document CHEMBL5727525, “4,5-substituted picolinamide and picolinonitrile metabotropic glutamate receptor 2 negative allosteric modulators” (2020).
pIC50: −log10 of the molar value.

Experiment: Ca2+ Flux Assay: GÎ±15 HEK293 cells stably expressing rat mGlu2 were plated in black-walled, clear-bottomed, poly-D-lysine coated 384-well plates in 20 Î¼L of assay medium (DMEM containing 10% dialyzed FBS, 20 mM HEPES, and 1 mM sodium pyruvate) at a density of 12K cells/well. The cells were grown overnight at 37° C. in the presence of 5% CO2. The next day, medium was removed and the cells incubated with 20 Î¼L of 2.3 Î¼M Fluo-4, AM prepared as a 2.3 mM stock in DMSO and mixed in a 1:1 ratio with 10% (w/v) pluronic acid F-127 and diluted in assay buffer (Hank's balanced salt solution, 20 mM HEPES, and 2.5 mM probenecid) for 45 minutes at 37° C. Dye was removed, 20 Î¼L of assay buffer was added, and the plate was incubated for 5 minutes at room temperature.

Row | SMILES | pIC50
1 | Cn1cc(-c2cc(C(N)=O)ncc2OCc2ccc(C(F)(F)F)nc2)cn1 | < 5.00
2 | C[C@@H]1CN(CCCOc2cnc(C(N)=O)cc2-c2ccc(F)cc2)C[C@H](C)O1 | < 5.00
3 | C[C@@H]1CN(CCOc2cnc(C(N)=O)cc2-c2ccc(F)cc2)C[C@H](C)O1 | < 5.00
4 | NC(=O)c1cc(-c2ccc(F)cc2)c(OCCOc2ccccc2F)cn1 | 5.70
5 | C[C@@H]1CN(CCOc2cnc(C#N)cc2-c2ccc(F)cc2)C[C@H](C)O1 | < 4.52
